According to patent US9746466B2, “Integrated compound discovery systems and methods” (Wake Forest University, priority 2011, dated 2017):

Target: thrombin (Homo sapiens, UniProt P00734)
Experiment: on-chip binding of TAMRA-labeled thrombin to bead-displayed oligonucleotides on Ion Torrent sequencing chips, fluorescence imaging
Details: after washing, fluorescence imaging of wells, 20mer GT randomer library doped with thrombin aptamer
Source text: Embodiments of the present invention reduce uncertainty due to amplification-based biases, blind spots and inference-based methods of deconvoluting candidate sequences through direct, on-chip analysis of candidate sequences and their target-binding properties. […] We obtained DNA libraries containing a 20mer GT randomer region flanked by Ion Torrent adaptor sequences (ITD, Coralville, Iowa). Libraries were doped with increasing amounts of the thrombin aptamer (with adaptors). […] The number of full-length reads correlates with the amount of thrombin aptamer doped into GT randomer libraries.

## GGTTGGTGTGGTTGG (DNA, backbone not given here) [thrombin aptamer]
  intensity of the TAMRA signal: highest
  residence time of the TAMRA signal: highest
